Results reported in US12161689B2, “Anti-infective formulations” (NEW MEXICO TECH UNIVERSITY RESEARCH PARK CORPORATION, priority 2018, dated 2024).
Where a SMILES comes first, the peptide text is derived from it. Bridges are numbered along the chain shown (N, C = ends). [ ]: non-standard residue; d: D form. The star is where a group is joined. Ileψ(thiazoline)Cys = CC[C@H](C)[C@H](N)C1=N[C@H](C(=O)*)CS1; dOrn = NCCC[C@@H](N)C(=O)O

Test system: multi-drug resistant Burkholderia cepacia (ATCC 10856)
Test: Spot on lawn, MHA plate: killing / diameter of clearance
Type: cell-based
Settings: 10 μL spot, 24 to 48 hours at 37° C.

## CC[C@H](C)[C@H](N)C1=N[C@H](C(=O)N[C@@H](CC(C)C)C(=O)N[C@H](CCC(=O)O)C(=O)N[C@H](C(=O)N[C@H]2CCCCNC(=O)[C@H](CC(N)=O)NC(=O)[C@@H](CC(=O)O)NC(=O)[C@H](Cc3cnc[nH]3)NC(=O)[C@@H](Cc3ccccc3)NC(=O)[C@H]([C@@H](C)CC)NC(=O)[C@@H](CCCN)NC2=O)[C@@H](C)CC)CS1 [Bacitracin] ({Ileψ(thiazoline)Cys}-L[dE]IK[dOrn]I[dF]H[dD]N; lactam 4-C)
B. cepacia (ATCC 10856)
  antibacterial activity: −
Burkholderia cepacia ATCC 10856
  antibacterial activity: −
